# Earlier results, collected in patent US20100267730A1, “NOVEL COMPOUNDS” (priority 2008, published 2010).
# Experiments:
# freely-feeding rats = settings: central administration, 4 hour time period
# orexin receptors = settings: central administration at the onset of the normal sleep period, rat sleep/EEG
substance,measurement,setting,value
orexin-A: ligand (agonist) of the orexin receptors; human Orexin-A amino acid sequence SEQ ID NO: 1 (EPLPDCCRQKTCSCRLYELLHGAGNHAAGILTL; Homo sapien),increase in food intake over control rats receiving vehicle,freely-feeding rats,approximately four-fold
same,effect on arousal,orexin receptors,dose-related increase in arousal
